Test results from patent US10189841B2, “Purinones as ubiquitin-specific protease 1 inhibitors” (Forma Therapeutics, Inc., priority 2015, dated 2019).

Target: USP1 (construct USP1 (I-785, GG670, 671AA)/UAF1 (I-677)-Flag) (Homo sapiens (Human), UniProt O94782, G670A/G671A)
Assay: Ubiquitin-Rhodamine 110 assay for USP1 activity
Format: biochemical
Conditions: USP1/UAF1 25 pM, Ub-Rh110 25 nM, 30 min preincubation
Method in brief: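 Ub-Rh110 (25 nM, ≪Km) cleavage read at ex 485/em 535 in Tris pH 8.0, CaCl2, GSH, Prionex, Triton X-100. The screen used 10 µM compound, 100 pM USP1/UAF1 and 45 min at RT.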

USP1 (construct USP1 (I-785, GG670, 671AA)/UAF1 (I-677)-Flag), sequence (O94782 whole entry G670A/G671A): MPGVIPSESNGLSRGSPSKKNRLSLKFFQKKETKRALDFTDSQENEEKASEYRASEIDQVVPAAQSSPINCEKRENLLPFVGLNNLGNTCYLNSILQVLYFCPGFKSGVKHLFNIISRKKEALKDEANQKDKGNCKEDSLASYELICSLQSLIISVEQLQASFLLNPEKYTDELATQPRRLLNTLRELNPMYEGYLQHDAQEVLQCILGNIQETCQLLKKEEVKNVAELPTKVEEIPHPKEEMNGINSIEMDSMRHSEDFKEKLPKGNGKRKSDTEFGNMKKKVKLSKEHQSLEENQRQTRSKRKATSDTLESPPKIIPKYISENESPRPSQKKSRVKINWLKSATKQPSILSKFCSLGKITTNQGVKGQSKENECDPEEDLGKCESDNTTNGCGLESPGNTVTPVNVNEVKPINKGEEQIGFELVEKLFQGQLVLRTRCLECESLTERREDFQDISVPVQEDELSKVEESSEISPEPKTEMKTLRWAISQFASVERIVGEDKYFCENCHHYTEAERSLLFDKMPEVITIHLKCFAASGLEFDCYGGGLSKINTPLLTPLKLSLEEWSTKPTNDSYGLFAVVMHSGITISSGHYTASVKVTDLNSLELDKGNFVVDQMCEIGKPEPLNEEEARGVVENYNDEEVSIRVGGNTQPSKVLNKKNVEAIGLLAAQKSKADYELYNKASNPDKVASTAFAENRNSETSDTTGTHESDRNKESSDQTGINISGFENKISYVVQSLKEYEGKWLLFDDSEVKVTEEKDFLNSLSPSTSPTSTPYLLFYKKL
USP1 (construct USP1 (I-785, GG670, 671AA)/UAF1 (I-677)-Flag), sequence (Q8TAF3 whole entry partner): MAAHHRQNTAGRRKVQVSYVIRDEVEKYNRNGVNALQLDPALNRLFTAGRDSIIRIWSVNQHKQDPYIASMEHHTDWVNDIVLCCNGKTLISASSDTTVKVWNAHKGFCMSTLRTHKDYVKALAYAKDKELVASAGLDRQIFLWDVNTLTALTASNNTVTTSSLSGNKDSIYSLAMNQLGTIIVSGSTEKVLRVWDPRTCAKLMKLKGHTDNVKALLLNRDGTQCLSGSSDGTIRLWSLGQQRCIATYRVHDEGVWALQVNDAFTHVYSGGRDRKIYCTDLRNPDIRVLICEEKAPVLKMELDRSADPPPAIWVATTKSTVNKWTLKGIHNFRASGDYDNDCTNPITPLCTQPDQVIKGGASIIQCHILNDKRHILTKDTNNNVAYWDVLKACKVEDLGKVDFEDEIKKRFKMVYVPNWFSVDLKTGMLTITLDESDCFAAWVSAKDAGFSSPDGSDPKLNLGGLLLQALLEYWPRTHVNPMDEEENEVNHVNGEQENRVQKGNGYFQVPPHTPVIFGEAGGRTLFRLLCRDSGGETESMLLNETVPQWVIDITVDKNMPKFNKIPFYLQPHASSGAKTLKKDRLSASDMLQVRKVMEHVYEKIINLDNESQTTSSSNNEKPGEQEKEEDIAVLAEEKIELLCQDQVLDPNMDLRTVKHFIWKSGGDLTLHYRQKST

`Cn1cc(C(F)(F)F)nc1-c1ccc(Cn2c(=O)[nH]c3cnc(-c4cccnc4OCC4CCCO4)nc32)cc1` (stereo not drawn) [Compound I-424, 9-(4-(1-methyl-4-(trifluoromethyl)-1H-imidazol-2-yl)benzyl)-2-(2-((tetrahydrofuran-2-yl)methoxy)pyridin-3-yl)-7,9-dihydro-8H-purin-8-one] and `Cn1cc(C(F)(F)F)nc1-c1ccc(Cn2c(=O)[nH]c3cnc(-c4cccnc4OCC4CCOC4)nc32)cc1` (stereo not drawn) [Compound I-425, 9-(4-(1-methyl-4-(trifluoromethyl)-1H-imidazol-2-yl)benzyl)-2-(2-((tetrahydrofuran-3-yl)methoxy)pyridin-3-yl)-7,9-dihydro-8H-purin-8-one] cannot be ordered by IC50: under 50 nM for the first, under 50 nM for the second.

First: COC(C)CCOc1ncccc1-c1ncc2[nH]c(=O)n(Cc3ccc(-c4nc(C(F)(F)F)cn4C)cc3)c2n1 (stereo not drawn) [Compound I-426, 2-(2-(3-methoxybutoxy)pyridin-3-yl)-9-(4-(1-methyl-4-(trifluoromethyl)-1H-imidazol-2-yl)benzyl)-7,9-dihydro-8H-purin-8-one]
Second: CN(C)CCOc1ncccc1-c1ncc2[nH]c(=O)n(Cc3ccc(-c4nc(C(F)(F)F)cn4C)cc3)c2n1 [Compound I-429, 2-(2-(2-(dimethylamino)ethoxy)pyridin-3-yl)-9-(4-(1-methyl-4-(trifluoromethyl)-1H-imidazol-2-yl)benzyl)-7,9-dihydro-8H-purin-8-one]
The IC50 of the first is lower: under 50 nM for the first, 200 to 2000 nM for the second. The first is the more potent here.

First: CCC(CC)Oc1ncccc1-c1ncc2[nH]c(=O)n(Cc3ccc(-c4nc(C(F)(F)F)cn4C)cc3)c2n1 [Compound I-427, 9-(4-(1-methyl-4-(trifluoromethyl)-1H-imidazol-2-yl)benzyl)-2-(2-(pentan-3-yloxy)pyridin-3-yl)-7,9-dihydro-8H-purin-8-one]
Second: CCC(COC)Oc1ncccc1-c1ncc2[nH]c(=O)n(Cc3ccc(-c4nc(C(F)(F)F)cn4C)cc3)c2n1 (stereo not drawn) [Compound I-428, 2-(2-((1-methoxybutan-2-yl)oxy)pyridin-3-yl)-9-(4-(1-methyl-4-(trifluoromethyl)-1H-imidazol-2-yl)benzyl)-7,9-dihydro-8H-purin-8-one]
The IC50 of the first is lower: under 50 nM for the first, 50 to 200 nM for the second. The first is the more potent here.

`CC(C)c1ccccc1-c1ncc2[nH]c(=O)n(Cc3ccc(-c4nc(C(F)(F)F)cn4C4CNC4)cc3)c2n1` [Compound I-430, 9-(4-(1-(azetidin-3-yl)-4-(trifluoromethyl)-1H-imidazol-2-yl)benzyl)-2-(2-isopropylphenyl)-7,9-dihydro-8H-purin-8-one] and `CC(C)c1ccccc1-c1ncc2[nH]c(=O)n(Cc3ccc(-c4nc(C(F)(F)F)cn4C4CN(C)C4)cc3)c2n1` [Compound I-447, 2-(2-isopropylphenyl)-9-(4-(1-(1-methylazetidin-3-yl)-4-(trifluoromethyl)-1H-imidazol-2-yl)benzyl)-7,9-dihydro-8H-purin-8-one] cannot be ordered by IC50: under 50 nM for the first, under 50 nM for the second.

`CC(C)c1ccccc1-c1ncc2[nH]c(=O)n(Cc3ccc(-n4ccc(C5CCNCC5)n4)cc3)c2n1` [Compound I-431, 2-(2-isopropylphenyl)-9-(4-(3-(piperidin-4-yl)-1H-pyrazol-1-yl)benzyl)-7,9-dihydro-8H-purin-8-one] and `CC(C)c1c(F)cccc1-c1ncc2[nH]c(=O)n(Cc3ccc(-n4ccc(C5CCNCC5)n4)cc3)c2n1` [Compound I-434, 2-(3-fluoro-2-isopropylphenyl)-9-(4-(3-(piperidin-4-yl)-1H-pyrazol-1-yl)benzyl)-7,9-dihydro-8H-purin-8-one] fall in the same range of IC50: 50 to 200 nM for the first, 50 to 200 nM for the second.

First: CC(C)c1ccccc1-c1ncc2[nH]c(=O)n(Cc3ccc(-n4ccc(N5CCNCC5)n4)cc3)c2n1 [Compound I-432, 2-(2-isopropylphenyl)-9-(4-(3-(piperazin-1-yl)-1H-pyrazol-1-yl)benzyl)-7,9-dihydro-8H-purin-8-one]
Second: CC(C)c1ccccc1-c1ncc2[nH]c(=O)n(Cc3ccc(-n4ccc(C5CCN(C)CC5)n4)cc3)c2n1 [Compound I-439, 2-(2-isopropylphenyl)-9-(4-(3-(1-methylpiperidin-4-yl)-1H-pyrazol-1-yl)benzyl)-7,9-dihydro-8H-purin-8-one]
The IC50 of the first is higher: 200 to 2000 nM for the first, 50 to 200 nM for the second.

`CC(C)c1ccccc1-c1ncc2c(n1)n(Cc1ccc(-n3ccc(C4CCNCC4)n3)cc1)c(=O)n2C` [Compound I-433, 2-(2-isopropylphenyl)-7-methyl-9-(4-(3-(piperidin-4-yl)-1H-pyrazol-1-yl)benzyl)-7,9-dihydro-8H-purin-8-one] and `CC(C)c1ccccc1-c1ncc2[nH]c(=O)n(Cc3ccc(-n4ccc(C5CCN(C)C5)n4)cc3)c2n1` (stereo not drawn) [Compound I-440, 2-(2-isopropylphenyl)-9-(4-(3-(1-methylpyrrolidin-3-yl)-1H-pyrazol-1-yl)benzyl)-7,9-dihydro-8H-purin-8-one] fall in the same range of IC50: 200 to 2000 nM for the first, 200 to 2000 nM for the second.

`CC(C)c1ncccc1-c1ncc2[nH]c(=O)n(Cc3ccc(-n4ccc(C5CCNCC5)n4)cc3)c2n1` [Compound I-435, 2-(2-isopropylpyridin-3-yl)-9-(4-(3-(piperidin-4-yl)-1H-pyrazol-1-yl)benzyl)-7,9-dihydro-8H-purin-8-one] and `CC(C)c1ncccc1-c1ncc2[nH]c(=O)n(Cc3ccc(-n4ccc(C5CCN(C)CC5)n4)cc3)c2n1` [Compound I-442, 2-(2-isopropylpyridin-3-yl)-9-(4-(3-(1-methylpiperidin-4-yl)-1H-pyrazol-1-yl)benzyl)-7,9-dihydro-8H-purin-8-one] cannot be ordered by IC50: over 2000 nM for the first, over 2000 nM for the second.

`CC(C)c1ccccc1-c1ncc2c(n1)n(Cc1ccc(-c3nc(C(F)(F)F)cn3C3CNC3)cc1)c(=O)n2C` [Compound I-436, 9-(4-(1-(azetidin-3-yl)-4-(trifluoromethyl)-1H-imidazol-2-yl)benzyl)-2-(2-isopropylphenyl)-7-methyl-7,9-dihydro-8H-purin-8-one] and `CC(C)c1ccccc1-c1ncc2c(n1)n(Cc1ccc(-c3nc(C(F)(F)F)cn3C3CN(C)C3)cc1)c(=O)n2C` [Compound I-448, 2-(2-isopropylphenyl)-7-methyl-9-(4-(1-(1-methylazetidin-3-yl)-4-(trifluoromethyl)-1H-imidazol-2-yl)benzyl)-7,9-dihydro-8H-purin-8-one] cannot be ordered by IC50: under 50 nM for the first, under 50 nM for the second.

`CC(C)c1ccccc1-c1ncc2[nH]c(=O)n(Cc3ccc(-c4ncc[nH]4)cc3)c2n1` [Compound I-437, 9-(4-(1H-imidazol-2-yl)benzyl)-2-(2-isopropylphenyl)-7,9-dihydro-8H-purin-8-one] and `CC(C)c1ccccc1-c1ncc2[nH]c(=O)n(Cc3ccc(-c4ncc(C5CCN(C)CC5)n4C)cc3)c2n1` [Compound I-446, 2-(2-isopropylphenyl)-9-(4-(1-methyl-5-(1-methylpiperidin-4-yl)-1H-imidazol-2-yl)benzyl)-7,9-dihydro-8H-purin-8-one] cannot be ordered by IC50: under 50 nM for the first, under 50 nM for the second.

`CC(C)c1ncccc1-c1ncc2[nH]c(=O)n(Cc3ccc(-c4nc(C(F)(F)F)cn4C4CN(C)C4)cc3)c2n1` [Compound I-438, 2-(2-Isopropylpyridin-3-yl)-9-(4-(1-(1-methylazetidin-3-yl)-4-(trifluoromethyl)-1H-imidazol-2-yl)benzyl)-7,9-dihydro-8H-purin-8-one] and `CC(C)c1ccccc1-c1ncc2[nH]c(=O)n(Cc3ccc(-c4nc(C5CCN(C)CC5)cn4C)cc3)c2n1` [Compound I-445, 2-(2-isopropylphenyl)-9-(4-(1-methyl-4-(1-methylpiperidin-4-yl)-1H-imidazol-2-yl)benzyl)-7,9-dihydro-8H-purin-8-one] cannot be ordered by IC50: under 50 nM for the first, under 50 nM for the second.

First: CC(C)c1c(F)cccc1-c1ncc2[nH]c(=O)n(Cc3ccc(-n4ccc(C5CCN(C)CC5)n4)cc3)c2n1 [Compound I-441, 2-(3-fluoro-2-isopropylphenyl)-9-(4-(3-(1-methylpiperidin-4-yl)-1H-pyrazol-1-yl)benzyl)-7,9-dihydro-8H-purin-8-one]
Second: CC(C)c1ccccc1-c1ncc2[nH]c(=O)n(Cc3ccc(-n4ccc(C5CCCN(C)C5)n4)cc3)c2n1 (stereo not drawn) [Compound I-444, 2-(2-isopropylphenyl)-9-(4-(3-(1-methylpiperidin-3-yl)-1H-pyrazol-1-yl)benzyl)-7,9-dihydro-8H-purin-8-one]
The IC50 of the first is higher: 50 to 200 nM for the first, under 50 nM for the second. The second is the more potent here.

Compared with `CN1CCC(c2ccn(-c3ccc(Cn4c(=O)[nH]c5cnc(-c6cccnc6OCC(F)(F)F)nc54)cc3)n2)CC1` [Compound I-443, 9-(4-(3-(1-methylpiperidin-4-yl)-1H-pyrazol-1-yl)benzyl)-2-(2-(2,2,2-trifluoroethoxy)pyridin-3-yl)-7,9-dihydro-8H-purin-8-one], `CC(C)c1ccccc1-c1ncc2c(n1)n(Cc1ccc(NS(=O)(=O)c3ccn(C)n3)cc1)c(=O)n2C` [Compound I-453, N-(4-((2-(2-isopropylphenyl)-7-methyl-8-oxo-7,8-dihydro-9H-purin-9-yl)methyl)phenyl)-1-methyl-1H-pyrazole-3-sulfonamide] is higher in IC50: 200 to 2000 nM for the first, over 2000 nM for the second.

Compared with `CC(C)c1ccccc1-c1ncc2c(n1)n(CC1CCN(S(=O)(=O)c3cccnc3)CC1)c(=O)n2C` [Compound I-449, 2-(2-isopropylphenyl)-7-methyl-9-((1-(pyridin-3-ylsulfonyl)piperidin-4-yl)methyl)-7,9-dihydro-8H-purin-8-one], `CC(C)c1ccccc1-c1ncc2c(n1)n(CC1CCN(S(=O)(=O)c3nccn3C)CC1)c(=O)n2C` [Compound I-451, 2-(2-isopropylphenyl)-7-methyl-9-((1-((1-methyl-1H-imidazol-2-yl)sulfonyl)piperidin-4-yl)methyl)-7,9-dihydro-8H-purin-8-one] is lower in IC50: over 2000 nM for the first, 200 to 2000 nM for the second. The second is the more potent here.

Compared with `CC(C)c1ccccc1-c1ncc2c(n1)n(CC1CCN(S(=O)(=O)C(C)C)CC1)c(=O)n2C` [Compound I-450, 2-(2-isopropylphenyl)-9-((1-(isopropylsulfonyl)piperidin-4-yl)methyl)-7-methyl-7,9-dihydro-8H-purin-8-one], `CC(C)c1ccccc1-c1ncc2[nH]c(=O)n(C3CCC34CN(S(=O)(=O)C(C)C)C4)c2n1` (stereo not drawn) [Compound I-452, 2-(2-isopropylphenyl)-9-(2-(isopropylsulfonyl)-2-azaspiro[3.3]heptan-5-yl)-7,9-dihydro-8H-purin-8-one] is higher in IC50: 50 to 200 nM for the first, 200 to 2000 nM for the second.
